In PubChem BioAssay AID1918954 (Molecular Pharmacology Branch, DTP, NCI, 2023):

Tested on: MDA-MB-468 complex spheroids with HUVEC/MSC, viability
Experiment: Anticancer human tumor MDA-MB-468 cell line growth inhibition;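 also: spheroids exposed to agents for seven days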;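 as to viability, T/C: 100% = DMSO vehicle control viability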
Conditions: for IC50: curve of first compound; for viability, T/C: stronger effect = lower value
Method in brief: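 Drug combinations with the LSD1 inhibitor iadademstat tested on tumor cells co-cultured as spheroids with endothelial cells and mesenchymal stem cells. Concentrations descended in half-log increments from clinical Cmax or 10 microM.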

[1] = second compound 0.1 µM, first compound 0.000316 µM
[2] = second compound 0.1 µM, first compound 0.001 µM
[3] = second compound 0.1 µM, first compound 0.00316 µM
[4] = second compound 0.1 µM, first compound 0.01 µM
[5] = second compound 0.1 µM, first compound 0.0316 µM
[6] = second compound 0.1 µM, first compound 0.1 µM
[7] = second compound 0.316 µM, first compound 0.000316 µM
[8] = second compound 0.316 µM, first compound 0.001 µM
[9] = second compound 0.316 µM, first compound 0.00316 µM
[10] = second compound 0.316 µM, first compound 0.01 µM
[11] = second compound 0.316 µM, first compound 0.0316 µM
[12] = second compound 0.316 µM, first compound 0.1 µM
[13] = second compound 1 µM, first compound 0.000316 µM
[14] = second compound 1 µM, first compound 0.001 µM
[15] = second compound 1 µM, first compound 0.00316 µM
[16] = second compound 1 µM, first compound 0.01 µM
[17] = second compound 1 µM, first compound 0.0316 µM
[18] = second compound 1 µM, first compound 0.1 µM
[19] = second compound 3.16 µM, first compound 0.000316 µM
[20] = second compound 3.16 µM, first compound 0.001 µM
[21] = second compound 3.16 µM, first compound 0.00316 µM
[22] = second compound 3.16 µM, first compound 0.01 µM
[23] = second compound 3.16 µM, first compound 0.0316 µM
[24] = second compound 3.16 µM, first compound 0.1 µM
[25] = second compound 10 µM, first compound 0.000316 µM
[26] = second compound 10 µM, first compound 0.001 µM
[27] = second compound 10 µM, first compound 0.00316 µM
[28] = second compound 10 µM, first compound 0.01 µM
[29] = second compound 10 µM, first compound 0.0316 µM
[30] = second compound 10 µM, first compound 0.1 µM

Work on `CC(C)CC(NC(=O)CNC(=O)c1cc(Cl)ccc1Cl)B1OC(=O)CC(CC(=O)O)(C(=O)O)O1` (stereo not given) + NC1CC1c1ccc(-c2cccc(O)c2)cc1 yielded an IC50 (second compound 0.1 µM) of 2.57 nM, an IC50 (second compound 0.316 µM) of 2.49 nM and an IC50 (second compound 1 µM) of 2.74 nM. For the same molecule, the IC50 (second compound 3.16 µM) was 2.32 nM, the IC50 (second compound 10 µM) was 1.54 nM and the viability, T/C [1] was 111%. It also gave a viability, T/C [2] of 106%, a viability, T/C [3] of 37.6% and a viability, T/C [4] of 4.72%. It also gave a viability, T/C [5] of 0.18%, a viability, T/C [6] of 0.16% and a viability, T/C [7] of 118%. For the same molecule, the viability, T/C [8] was 94.2%, the viability, T/C [9] was 39% and the viability, T/C [10] was 5.32%. For the same molecule, the viability, T/C [11] was 0.16%, the viability, T/C [12] was 0.15% and the viability, T/C [13] was 105%. It also gave a viability, T/C [14] of 109%, a viability, T/C [15] of 41.8% and a viability, T/C [16] of 5.14%. It also gave a viability, T/C [17] of 0.2%, a viability, T/C [18] of 0.14% and a viability, T/C [19] of 106%. For the same molecule, the viability, T/C [20] was 100%, the viability, T/C [21] was 31.4% and the viability, T/C [22] was 5.19%. It also gave a viability, T/C [23] of 0.17%, a viability, T/C [24] of 0.14% and a viability, T/C [25] of 71.4%. For the same molecule, the viability, T/C [26] was 62.5%, the viability, T/C [27] was 28.9% and the viability, T/C [28] was 4%. For the same molecule, the viability, T/C [29] was 0.22% and the viability, T/C [30] was 0.24%.

In the case of `Nc1ccccc1NC(=O)c1ccc(CNC(=O)OCc2cccnc2)cc1` + NC1CCC(NC2CC2c2ccccc2)CC1, the IC50 (second compound 0.1 µM) is reported as 170 nM, the IC50 (second compound 0.316 µM) is reported as 140 nM and the IC50 (second compound 1 µM) is reported as 127 nM. For the same molecule, the IC50 (second compound 3.16 µM) was 143 nM, the IC50 (second compound 10 µM) was 111 nM and the viability, T/C (second compound 0.1 µM, first compound 0.00949 µM) was 97.4%. For the same molecule, the viability, T/C (second compound 0.1 µM, first compound 0.03 µM) was 106%, the viability, T/C (second compound 0.1 µM, first compound 0.0949 µM) was 87.2% and the viability, T/C (second compound 0.1 µM, first compound 0.3 µM) was 13.9%. It also gave a viability, T/C (second compound 0.1 µM, first compound 0.949 µM) of 3.13%, a viability, T/C (second compound 0.1 µM, first compound 3 µM) of 1.48% and a viability, T/C (second compound 0.316 µM, first compound 0.00949 µM) of 102%. It also gave a viability, T/C (second compound 0.316 µM, first compound 0.03 µM) of 103%, a viability, T/C (second compound 0.316 µM, first compound 0.0949 µM) of 67.7% and a viability, T/C (second compound 0.316 µM, first compound 0.3 µM) of 14.6%. It also gave a viability, T/C (second compound 0.316 µM, first compound 0.949 µM) of 3.32%, a viability, T/C (second compound 0.316 µM, first compound 3 µM) of 0.9% and a viability, T/C (second compound 1 µM, first compound 0.00949 µM) of 89.1%. It also gave a viability, T/C (second compound 1 µM, first compound 0.03 µM) of 90.3%, a viability, T/C (second compound 1 µM, first compound 0.0949 µM) of 61.2% and a viability, T/C (second compound 1 µM, first compound 0.3 µM) of 15.9%. It also gave a viability, T/C (second compound 1 µM, first compound 0.949 µM) of 2.93%, a viability, T/C (second compound 1 µM, first compound 3 µM) of 1.42% and a viability, T/C (second compound 3.16 µM, first compound 0.00949 µM) of 80.8%. It also gave a viability, T/C (second compound 3.16 µM, first compound 0.03 µM) of 83.7%, a viability, T/C (second compound 3.16 µM, first compound 0.0949 µM) of 69.6% and a viability, T/C (second compound 3.16 µM, first compound 0.3 µM) of 14.9%. The viability, T/C (second compound 3.16 µM, first compound 0.949 µM) was 3.07%, the viability, T/C (second compound 3.16 µM, first compound 3 µM) was 1.04% and the viability, T/C (second compound 10 µM, first compound 0.00949 µM) was 59.9%. For the same molecule, the viability, T/C (second compound 10 µM, first compound 0.03 µM) was 61%, the viability, T/C (second compound 10 µM, first compound 0.0949 µM) was 56% and the viability, T/C (second compound 10 µM, first compound 0.3 µM) was 13.4%. For the same molecule, the viability, T/C (second compound 10 µM, first compound 0.949 µM) was 3.05% and the viability, T/C (second compound 10 µM, first compound 3 µM) was 1.52%.

`CC[C@@]1(O)C(=O)OCc2c1cc1n(c2=O)Cc2cc3c(CN(C)C)c(O)ccc3nc2-1` + NC1CC1c1ccc(-c2cccc(O)c2)cc1 gave an IC50 (second compound 0.1 µM) of 1.32 nM, an IC50 (second compound 0.316 µM) of 1.2 nM and an IC50 (second compound 1 µM) of 1.15 nM. For the same molecule, the IC50 (second compound 3.16 µM) was 1.05 nM, the IC50 (second compound 10 µM) was 0.731 nM and the viability, T/C [1] was 95.6%. The viability, T/C [2] was 61.8%, the viability, T/C [3] was 12.6% and the viability, T/C [4] was 7.83%. The viability, T/C [5] was 4.57%, the viability, T/C [6] was 4.01% and the viability, T/C [7] was 97.4%. It also gave a viability, T/C [8] of 57.1%, a viability, T/C [9] of 12.2% and a viability, T/C [10] of 7.26%. For the same molecule, the viability, T/C [11] was 4.33%, the viability, T/C [12] was 3.89% and the viability, T/C [13] was 90.9%. The viability, T/C [14] was 55.3%, the viability, T/C [15] was 12.1% and the viability, T/C [16] was 7.25%. It also gave a viability, T/C [17] of 4.02%, a viability, T/C [18] of 3.43% and a viability, T/C [19] of 98%. It also gave a viability, T/C [20] of 51.8%, a viability, T/C [21] of 12.3% and a viability, T/C [22] of 6.86%. The viability, T/C [23] was 3.9%, the viability, T/C [24] was 2.97% and the viability, T/C [25] was 67.6%. The viability, T/C [26] was 43.5%, the viability, T/C [27] was 13.9% and the viability, T/C [28] was 7.24%. For the same molecule, the viability, T/C [29] was 4.44% and the viability, T/C [30] was 3.53%.
